Experimental data taken from patent EP0305843A2, “Antiviral agent” (BAYER AG, priority 1987, dated 1989).

Experiments:
[1] = test system: T-Zellen; assay: Further studies: influence on the function of T cells; assay type: cell-based; conditions: no method or concentration given
[2] = test system: Visna-Virus; assay: Visna virus test in cell culture (inhibition of virus-induced cytopathic effect, method of Narayan et al.); assay type: cell-based; conditions: Visna-virus-infected cell cultures treated with the compound at non-cytotoxic concentrations
From the text: In Zellkulturen, die mit Visna-Virus infiziert sind, treten 5 bis 10 Tage nach der Infektion ausgeprägte virusinduzierte, zytopathische Effekte auf. Durch Behandlung der infizierten Zellkulturen mit 9-(2,3-Anhydro-β-D-lyxofuranosyl)adenin konnte das Auftreten dieser zytopathischen Effekte verhindert werden. Der Visna-Virus-Test wurde nach der Methode von O. Narayan et al., Journal of Infectious Dieseases 135, 5, 1977, 800-806 durchgeführt. Dazu wurde 9-(2,3-Anhydro-β-D-lyxofuranosyl)adenin - in Produktionsmedium gelöst - in nicht zytotoxischen Konzentrationen in 96er Microtiterplatten verdünnt. Anschließend wurden Fibroblastenzellen vom Schaf (5 x 10⁴ Zellen pro Napf) - in Produktionsmedium suspendiert - zu jedem Näpfchen zugeführt. Jedes Näpfchen erhielt dann 50 µl einer Visna-Viruslösung mit einer Titer von ca. 2,5 x 10⁴ TCID₅₀ (TCID = tissue culture infectious dose). Diese Virusdosis entspricht einer MOI (Multiplizität der Infektion) von ca. 0,05.
Unter diesen Infektionsbedingungen resultierte zwischen Tag 5 und Tag 10 in einer Infektionskontrolle ohne Substanz ein virusinduzierter, zytopathischer Effekt. Die infizierten und behandelten Zellen und die Kontrollzellen wurden 7 Tage bei 37°C, 5 % CO₂ inkubiert. […]

Nc1ncnc2c1ncn2[C@@H]1O[C@H](CO)[C@@H]2O[C@@H]21 [9-(2,3-Anhydro-β-D-lyxofuranosyl)adenin]
Funktion von T-Zellen [1]: nicht beeinflußt
Auftreten der virusinduzierten zytopathischen Effekte [2]: verhindert
